Results taken from patent US20240287080A1 (IDEAYA Biosciences Inc., priority 2021, published 2024).

The compounds below were run against T1, Pol theta (1-899) (Homo sapiens, UniProt O75417) (assay: Pol theta ATPase activity, NADH oxidation-coupled enzymatic assay (ATPase NADH coupling: Standard Screening: hPolQ)). Details: Pol theta (1-899) 5 nM, NADH oxidation-coupled ATPase assay; compounds of Table 3.
T1 construct: Pol theta (1-899) (5 nM) in assay buffer
Format: biochemical
Summary of the method: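 Rates of ATP hydrolysis taken from 60-min A340 traces of NADH oxidation via PK/LDH coupling, then fit four-parameter for IC50, Hill slope and max inhibition. Enzyme (5 nM, 1-899) and compounds preincubated 15 min before ATP 100 μM and 50-thymine ssDNA 300 nM (stock, equal volume added).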

T1 sequence (O75417 1-899): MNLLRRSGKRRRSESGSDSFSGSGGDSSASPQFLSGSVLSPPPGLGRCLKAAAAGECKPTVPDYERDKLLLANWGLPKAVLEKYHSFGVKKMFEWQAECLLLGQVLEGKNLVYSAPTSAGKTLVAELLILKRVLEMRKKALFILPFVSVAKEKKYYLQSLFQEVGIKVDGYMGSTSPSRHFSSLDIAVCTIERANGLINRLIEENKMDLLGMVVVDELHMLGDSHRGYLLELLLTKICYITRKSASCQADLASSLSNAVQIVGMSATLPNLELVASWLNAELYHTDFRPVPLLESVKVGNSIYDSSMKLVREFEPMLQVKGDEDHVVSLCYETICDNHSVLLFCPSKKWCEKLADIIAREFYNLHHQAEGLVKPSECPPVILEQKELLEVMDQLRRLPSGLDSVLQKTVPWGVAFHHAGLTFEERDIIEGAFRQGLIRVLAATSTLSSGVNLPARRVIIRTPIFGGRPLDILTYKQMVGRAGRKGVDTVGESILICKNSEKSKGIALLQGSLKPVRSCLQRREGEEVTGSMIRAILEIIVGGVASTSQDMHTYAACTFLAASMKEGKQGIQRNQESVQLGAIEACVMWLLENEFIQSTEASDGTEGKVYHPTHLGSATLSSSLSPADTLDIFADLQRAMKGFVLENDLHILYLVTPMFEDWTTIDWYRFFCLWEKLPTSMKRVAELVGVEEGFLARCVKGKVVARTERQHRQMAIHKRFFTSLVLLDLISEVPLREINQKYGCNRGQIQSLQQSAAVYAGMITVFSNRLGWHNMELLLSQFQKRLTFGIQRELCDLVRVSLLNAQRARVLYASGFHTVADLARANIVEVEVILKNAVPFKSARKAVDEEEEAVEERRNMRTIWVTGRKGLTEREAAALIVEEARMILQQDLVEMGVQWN

IC50	SMILES
≤ 200 nM	COc1cnc(Cl)cc1-c1cc(C)ncc1C(=O)Nc1nnc(OCCN(C)CC(F)(F)F)s1 [Example 317, 2′-chloro-5′-methoxy-6-methyl-N-(5-(2-(methyl(2,2,2-trifluoroethyl)amino)ethoxy)-1,3,4-thiadiazol-2-yl)-[4,4′-bipyridine]-3-carboxamide]
1000 to 10000 nM	COc1nnc(NC(=O)c2cnc(C)cc2-c2cn(C)c3ccccc23)s1 [Example 464, N-(5-methoxy-1,3,4-thiadiazol-2-yl)-6-methyl-4-(1-methyl-1H-indol-3-yl)pyridine-3-carboxamide]
≤ 200 nM	CCOc1cc(C(=O)Nc2nnc(OC)s2)c(-c2cc(Cl)ncc2OC)cn1 [Example 276, 2′-chloro-6-ethoxy-5′-methoxy-N-(5-methoxy-1,3,4-thiadiazol-2-yl)-[3,4′-bipyridine]-4-carboxamide]
1000 to 10000 nM	COc1nnc(NC(=O)c2cnc(C)cc2-c2ccc3c(c2)COC3=O)s1 [Example 416, N-(5-methoxy-1,3,4-thiadiazol-2-yl)-6-methyl-4-(1-oxo-1,3-dihydro-2-benzofuran-5-yl)pyridine-3-carboxamide]
500 to 1000 nM	COc1nnc(NC(=O)c2cnc(C)cc2-c2cccc(C)c2)s1 [Example 361, N-(5-methoxy-1,3,4-thiadiazol-2-yl)-6-methyl-4-(3-methylphenyl) pyridine-3-carboxamide]
1000 to 10000 nM	COc1nnc(NC(=O)c2cnc(C)cc2-c2ccc(C)c(C)c2)s1 [Example 381, 4-(3,4-dimethylphenyl)-N-(5-methoxy-1,3,4-thiadiazol-2-yl)-6-methylpyridine-3-carboxamide]
200 to 500 nM	COc1nnc(NC(=O)c2nnc(C)cc2-c2cc(Cl)ncc2OC)s1 [Example 294, 4-(2-chloro-5-methoxypyridin-4-yl)-N-(5-methoxy-1,3,4-thiadiazol-2-yl)-6-methylpyridazine-3-carboxamide]
≤ 200 nM	COc1cnc(C)cc1-c1cc(C)ncc1C(=O)Nc1nnc(OC(C)COCC(F)(F)F)s1 (stereo not drawn) [Example 241, 5′-methoxy-2′,6-dimethyl-N-(5-((1-(2,2,2-trifluoroethoxy)propan-2-yl)oxy)-1,3,4-thiadiazol-2-yl)-[4,4′-bipyridine]-3-carboxamide]
1000 to 10000 nM	COc1nnc(NC(=O)c2cnc(C)cc2-c2cnc(C#N)cc2C)s1 [Example 413, 6-cyano-N-(5-methoxy-1,3,4-thiadiazol-2-yl)-4,6′-dimethyl-[3,4′-bipyridine]-3′-carboxamide]
1000 to 10000 nM	CNS(=O)(=O)c1ccc(-c2cc(C)ncc2C(=O)Nc2nnc(OC)s2)cc1 [Example 384, N-(5-methoxy-1,3,4-thiadiazol-2-yl)-6-methyl-4-[4-(methylsulfamoyl)phenyl]pyridine-3-carboxamide]
≤ 200 nM	COc1cnc(Br)cc1-c1cc(C)ncc1C(=O)Nc1nnc(O[C@@H]2CCC[C@H](O)C2)s1 (single isomer, unassigned) [Example 239]
500 to 1000 nM	COc1nnc(NC(=O)c2cnc(C)cc2-c2ccc3[nH]ncc3c2)s1 [Example 487, 4-(1H-indazol-5-yl)-N-(5-methoxy-1,3,4-thiadiazol-2-yl)-6-methylnicotin amide]
1000 to 10000 nM	COc1cnc(C)cc1-c1cc(C)ncc1C(=O)Nc1nnc(O)s1 [Example 325, N-(5-hydroxy-1,3,4-thiadiazol-2-yl)-5′-methoxy-2′,6-dimethyl-[4,4′-bipyridine]-3-carboxamide]
200 to 500 nM	COc1ccc(-c2cc(C)ncc2C(=O)Nc2nnc(OC)s2)c(OC)n1 [Example 435, 2,6-dimethoxy-N-(5-methoxy-1,3,4-thiadiazol-2-yl)-6′-methyl-[3,4′-bipyridine]-3′-carboxamide]
200 to 500 nM	CCc1cc(C(=O)Nc2nnc(OC)s2)c(-c2cc(Cl)ncc2OC)cn1 [Example 270, 2′-chloro-6-ethyl-5′-methoxy-N-(5-methoxy-1,3,4-thiadiazol-2-yl)-[3,4′-bipyridine]-4-carboxamide]
≤ 200 nM	COc1nnc(NC(=O)c2cnc(C)cc2-c2cccc(C(F)(F)F)c2)s1 [Example 359, N-(5-methoxy-1,3,4-thiadiazol-2-yl)-6-methyl-4-[3-(trifluoromethyl)phenyl]pyridine-3-carboxamide]

Same assay, conditions: Table 4; Pol theta (1-899) 5 nM, ATP, dT50 ssDNA

IC50	SMILES
500 to 1000 nM	COc1nnc(NC(=O)c2cnc(C)cc2-c2cc(N)ncc2OC)s1 [Example 73, 2′-amino-5′-methoxy-N-(5-methoxy-1,3,4-thiadiazol-2-yl)-6-methyl-(4,4′-bipyridine)-3-carboxamide]
≤ 200 nM	COc1cnc(Cl)cc1-c1cc(C)ncc1C(=O)Nc1nnc(OC2CC2)s1 [Example 7, 2′-chloro-N-(5-cyclopropoxy-1,3,4-thiadiazol-2-yl)-5′-methoxy-6-methyl-(4,4′-bipyridine)-3-carboxamide]
≤ 200 nM	COc1nnc(NC(=O)c2cnc(C)cc2-c2ccccc2OC(F)F)s1 [Example 36, 4-(2-(difluoromethoxy)phenyl)-N-(5-methoxy-1,3,4-thiadiazol-2-yl)-6-methylnicotinamide]
≤ 200 nM	COc1nnc(NC(=O)c2cnc(C)cc2-c2cc(Cl)ccc2OC)s1 [Example 9, 4-(5-chloro-2-methoxyphenyl)-N-(5-methoxy-1,3,4-thiadiazol-2-yl)-6-methylnicotinamide]
≤ 200 nM	COc1cnc(Cl)cc1-c1cc(C)ncc1C(=O)Nc1nnc(OCC(F)F)s1 [Example 18, 2′-chloro-N-(5-(2,2-difluoroethoxy)-1,3,4-thiadiazol-2-yl)-5′-methoxy-6-methyl-(4,4′-bipyridine)-3-carboxamide]
≤ 200 nM	COc1cnc(Cl)cc1-c1cc(C)ncc1C(=O)Nc1nnc(OCC(C)(C)F)s1 [Example 19, 2′-chloro-N-(5-(2-fluoro-2-methylpropoxy)-1,3,4-thiadiazol-2-yl)-5′-methoxy-6-methyl-(4,4′-bipyridine)-3-carboxamide]
200 to 500 nM	COc1nnc(NC(=O)c2cnc(C)cc2-c2cc(C)ncc2C)s1 [Example 56, N-(5-methoxy-1,3,4-thiadiazol-2-yl)-2′,5′,6-trimethyl-(4,4′-bipyridine)-3-carboxamide]

Same assay, conditions: Table 5; Pol theta (1-899) 5 nM, ATP, dT50 ssDNA

IC50	SMILES
≤ 200 nM	COc1cnc(Cl)c(F)c1-c1cc(C)ncc1C(=O)Nc1nnc(O[C@@H]2CCOC2)s1 [Example 80, 2′-chloro-3′-fluoro-5′-methoxy-6-methyl-N-(5-(((R)-tetrahydrofuran-3-yl)oxy)-1,3,4-thiadiazol-2-yl)-(4,4′-bipyridine)-3-carboxamide]
≤ 200 nM	COc1cnc(Cl)cc1-c1cc(C)ncc1C(=O)Nc1nnc(O[C@H]2CO[C@H](C)C2)s1 (single isomer, unassigned) [Example 192]
≤ 200 nM	COc1cnc(Cl)cc1-c1cc(C)ncc1C(=O)Nc1nnc(OC2CCCC2OC)s1 (stereo not drawn) [Example 163, 2′-chloro-5′-methoxy-N-(5-((2-methoxycyclopentyl)oxy)-1,3,4-thiadiazol-2-yl)-6-methyl-(4,4′-bipyridine)-3-carboxamide]
≤ 200 nM	COc1cnc(Cl)cc1-c1cc(C)ncc1C(=O)Nc1nnc(O[C@H]2CC[C@@H](OC)CC2)s1 (single isomer, unassigned) [Example 124, 2′-chloro-5′-methoxy-N-(5-(((1s,4s)-4-methoxycyclohexyl)oxy)-1,3,4-thiadiazol-2-yl)-6-methyl-(4,4′-bipyridine)-3-carboxamide]
≤ 200 nM	COc1cnc(Cl)cc1-c1cc(C)ncc1C(=O)Nc1nnc(O[C@H]2COC(C)(C)C2)s1 (single isomer, unassigned) [Example 131]
≤ 200 nM	Cc1cc(-c2cc(Cl)ncc2OC(F)F)c(C(=O)Nc2nnc(O[C@H]3CC[C@@](C)(O)CC3)s2)cn1 (single isomer, unassigned) [Example 220, 2′-chloro-5′-(difluoromethoxy)-N-(5-(((1s,4s)-4-hydroxy-4-methylcyclohexyl)oxy)-1,3,4-thiadiazol-2-yl)-6-methyl-(4,4′-bipyridine)-3-carboxamide]
≤ 200 nM	COc1cnc(Cl)cc1-c1cc(C)ncc1C(=O)Nc1nnc(O[C@H]2CC[C@@]3(CCO3)CC2)s1 (single isomer, unassigned) [Example 186, N-(5-(((4r,7r)-1-oxaspiro(3.5)nonan-7-yl)oxy)-1,3,4-thiadiazol-2-yl)-2′-chloro-5′-methoxy-6-methyl-(4,4′-bipyridine)-3-carboxamide]
≤ 200 nM	COc1cnc(Cl)cc1-c1cc(C)ncc1C(=O)Nc1nnc(O[C@@H]2COC3(CCCC3)C2)s1 (single isomer, unassigned) [Example 229]
≤ 200 nM	Cc1cc(-c2cc(Cl)ncc2OC(F)F)c(C(=O)Nc2nnc(O[C@H]3CCOC3)s2)cn1 [Example 83, (S)-2′-chloro-5′-(difluoromethoxy)-6-methyl-N-(5-((tetrahydrofuran-3-yl)oxy)-1,3,4-thiadiazol-2-yl)-(4,4′-bipyridine)-3-carboxamide]
≤ 200 nM	COc1cnc(Cl)cc1-c1cc(C)ncc1C(=O)Nc1nnc(O[C@H]2CC[C@](C)(O)CC2)s1 (single isomer, unassigned) [Example 140, 2′-chloro-N-(5-(((1r,4r)-4-hydroxy-4-methylcyclohexyl)oxy)-1,3,4-thiadiazol-2-yl)-5′-methoxy-6-methyl-(4,4′-bipyridine)-3-carboxamide]
≤ 200 nM	COc1cnc(Cl)cc1-c1cc(C)ncc1C(=O)Nc1nnc(O[C@H]2CCC[C@](C)(O)C2)s1 (single isomer, unassigned) [Example 181]

Same assay, conditions: Table 5; values given as bound; Pol theta (1-899) 5 nM, ATP, dT50 ssDNA

IC50	SMILES
> 10000 nM	COc1nnc(NC(=O)c2cnc(C)cc2-c2cccc3scnc23)s1 [Example 98, 4-(benzo(d)thiazol-4-yl)-N-(5-methoxy-1,3,4-thiadiazol-2-yl)-6-methylnicotinamide]
> 10000 nM	COc1nnc(NC(=O)c2cnc(C)cc2-c2cccn3ncnc23)s1 [Example 123, 4-((1,2,4)triazolo(1,5-a)pyridin-8-yl)-N-(5-methoxy-1,3,4-thiadiazol-2-yl)-6-methylnicotinamide]
